Measurements taken from patent publication US8796328B2, “TRPV1 antagonists” (AbbVie Inc., priority 2012, dated 2014).

What was measured:
[1] = target: T1, human TRPV1 receptor (hTRPV1) (Homo sapiens (Human), UniProt Q8NER1); experiment: Acid activation assay (pH 5.0, FLIPR intracellular Ca2+); type: cell-based; conditions: 37.5 μM compound, percentage of the maximal pH 5.0-induced response remaining; for remaining activity at 37.5 µM: read-out: hTRPV1 H+ (max % remain)
Procedure: Dulbecco's modified Eagle's medium (DMEM) with 4.5 mg/mL D-glucose, fetal bovine serum, L-glutamine, and 2-morpholinoethanesulfonic acid (MES) were purchased from Sigma-Aldrich Co. (St. Louis, Mo.). Dulbecco's phosphate-buffered saline (DPBS) with Ca^2+, Mg^2+, and 1 mg/mL D-glucose (pH 7.4), Geneticin®, 0.25% trypsin-1 mM EDTA, and penicillin-streptomycin were purchased from Invitrogen Corp. (Carlsbad, Calif.). The FLIPR® Calcium 4 assay kit was purchased from Molecular Devices (Sunnyvale, Calif.).
(§1) The cDNAs for the human TRPV1 receptor (hTRPV1) were isolated by reverse transcriptase-polymerase chain reaction (RT-PCR) from human small intestine poly A+ RNA supplied by Clontech (Palo Alto, Calif.) using primers designed surrounding the initiation and termination codons identical to the published sequences (Hayes et al. Pain 2000, 88, 205-215). The resulting cDNA PCR products were subcloned into pCIneo mammalian expression vector (Promega) and fully sequenced using fluorescent dye-terminator reagents (Prism, Perkin-Elmer Applied Biosystems Division) and a Perkin-Elmer Applied Biosystems Model 373 DNA sequencer or Model 310 genetic analyzer. Expression plasmids encoding the hTRPV1 cDNA were transfected individually into 1321N1 human astrocytoma cells using Lipofectamine®. Forty-eight hours after transfection, the neomycin-resistant cells were selected with growth medium containing 800 μg/mL Geneticin (Gibco BRL). Surviving individual colonies were isolated and screened for TRPV1 receptor activity. Cells expressing recombinant homomeric TRPV1 receptors were maintained at 37° C. in DMEM containing 4 mM L-glutamine, 300 μg/mL G418 (Cal-biochem) and 10% fetal bovine serum under a humidified 5% CO2 atmosphere.
The functional activity of compounds at the TRPV1 receptor was determined by measurement of intracellular Ca^2+ levels ([Ca^2+]i) using the Fluorescence Imaging Plate Reader (FLIPR)^TETRA®. All compounds were tested over a 12-point one-half-log concentration range. Compound stocks, 10 mM, were prepared in DMSO, and diluted serially across a 384-well plate using a Bravo BenchCel workstation (Agilent Technologies, Santa Clara, Calif.).
On the day of the experiment growth medium was removed, and the no-wash FLIPR®Calcium-4 dye (λEX=470-495 nm, λEM=515-575 nm) was added to each well using the Multidrop® dispenser. Cells were incubated for 90-120 minutes in the dark at 25° C. Test compounds were dissolved in DMSO, and plates were prepared using an Agilent Bravo workstation (Agilent Technologies Inc., Santa Clara, Calif.). Compounds were added to the cells 3 minutes prior to the addition of a pH 5.0 solution. Reagents were delivered at a rate of 40 μL/sec, and the final assay volume was 80 μL. Acidic pH solutions were prepared by titration of DPBS/MES with 1 N HCl. The intensity of the fluorescence was captured and digitally transferred to an interfaced PC.

[2] = target: T1, human TRPV1 receptor (hTRPV1); experiment: Capsaicin activation assay (FLIPR intracellular Ca2+); type: cell-based; conditions: inhibition of capsaicin-induced intracellular Ca2+ increase; compounds added 3 minutes prior to capsaicin; read-out: hTRPV1 cap. IC50
Procedure: Dulbecco's modified Eagle medium (D-MEM) (with 4.5 mg/mL glucose) and fetal bovine serum were obtained from Hyclone Laboratories, Inc. (Logan, Utah). Dulbecco's phosphate-buffered saline (D-PBS) (with 1 mg/mL glucose and 3.6 mg/l Na pyruvate, without phenol red), L-glutamine, hygromycin B, and Lipofectamine® were obtained from Life Technologies (Grand Island, N.Y.). G418 sulfate was obtained from Calbiochem-Novabiochem Corp. (San Diego, Calif.). Capsaicin (8-methyl-N-vanillyl-6-nonenamide) was obtained from Sigma-Aldrich, Co. (St. Louis, Mo.). Fluo-4 AM (N-[4-[6-[(acetyloxy)methoxy]-2,7-difluoro-3-oxo-3H-xanthen-9-yl]-2-[2-[2-[bis[2-[(acetyloxy)methoxy]-2-oxyethyl]amino]-5-methylphenoxy]ethoxy]phenyl]-N-[2-[(acetyloxy)methoxy]-2-oxyethyl]-glycine, (acetyloxy)methyl ester) was purchased from Molecular Probes (Eugene, Oreg.).
as §1, with “D-MEM” for “DMEM”
The functional activity of compounds at the TRPV1 receptor was determined by measurement of intracellular Ca^2+ levels ([Ca^2]i) using the Fluorescence Imaging Plate Reader (FLIPR)^TETRA®. All compounds were tested over a 12-point one-third-log concentration range. Compound stocks, 10 mM, were prepared in DMSO, and diluted serially across a 384-well plate using a Bravo BenchCel workstation (Agilent Technologies, Santa Clara, Calif.). A stock concentration of capsaicin (10 mM) was made in DMSO, and diluted in D-PBS to a final concentration of 200 nM (4×). On the day prior to the experiment, recombinant HEK293 cells that stably express either human or rat TRPV1 (hTRPV1-3) were removed from tissue culture flasks and plated in growth medium into black-walled clear-bottom 384-well Biocoat™ poly-D-lysine assay plates (BD Biosciences, Bedford, Mass.) using a Multidrop® dispenser (ThermoScientific, Waltham, Mass.). On the day of the experiment, growth medium was removed, and the no-wash FLIPR® Calcium-4 dye (λEX=470-495 nm, λEM=515-575 nm; Molecular Devices, Sunnyvale, Calif.) was added to each well using the Multidrop® dispenser. Cells were incubated for 90-120 minutes in the dark at room temperature. Test compounds were added to the cells 3 minutes prior to the addition of 200 nM capsaicin (4×), and the final assay volume was 80 μL. Fluorescence readings were made at 1 to 5 second intervals over the course of the experimental run. The peak increase in relative fluorescence units (minus baseline) was calculated, and expressed as a percentage of the 50 nM capsaicin (control) response. Curve-fits of the data were solved using a four-parameter logistic Hill equation in GraphPad Prism® (GraphPad Software, Inc., San Diego, Calif.), and IC50 values (concentration of the test compounds that inhibits 50% of the intracellular Ca^2+ concentration increase induced by capasin) were calculated.

T1 sequence (Q8NER1 whole entry): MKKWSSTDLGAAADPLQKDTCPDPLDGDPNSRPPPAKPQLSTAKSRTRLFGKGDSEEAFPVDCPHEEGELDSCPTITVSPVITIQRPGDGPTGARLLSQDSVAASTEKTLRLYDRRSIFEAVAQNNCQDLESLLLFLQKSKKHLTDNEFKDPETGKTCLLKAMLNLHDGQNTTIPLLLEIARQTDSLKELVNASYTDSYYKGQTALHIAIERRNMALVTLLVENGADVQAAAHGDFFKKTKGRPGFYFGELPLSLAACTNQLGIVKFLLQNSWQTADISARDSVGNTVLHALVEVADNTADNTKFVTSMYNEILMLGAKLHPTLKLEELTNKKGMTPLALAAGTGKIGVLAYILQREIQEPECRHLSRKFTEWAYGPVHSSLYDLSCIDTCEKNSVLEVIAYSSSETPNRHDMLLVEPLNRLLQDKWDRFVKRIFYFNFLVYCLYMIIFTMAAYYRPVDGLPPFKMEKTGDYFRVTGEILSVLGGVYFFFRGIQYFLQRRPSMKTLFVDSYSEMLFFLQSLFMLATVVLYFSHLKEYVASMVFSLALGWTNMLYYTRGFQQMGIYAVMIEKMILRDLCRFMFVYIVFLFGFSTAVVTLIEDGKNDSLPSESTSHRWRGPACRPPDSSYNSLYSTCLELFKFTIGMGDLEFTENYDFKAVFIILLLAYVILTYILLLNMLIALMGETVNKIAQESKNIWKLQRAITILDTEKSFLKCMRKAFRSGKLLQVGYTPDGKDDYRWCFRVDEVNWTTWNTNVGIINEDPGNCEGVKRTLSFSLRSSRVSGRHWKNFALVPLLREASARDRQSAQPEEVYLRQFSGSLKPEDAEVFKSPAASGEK

| Compound | remaining activity at 37.5 µM [1] [%] | IC50 [2] [nM] | hTRPV1 H+ (max % remain) [1] [%] |
| --- | --- | --- | --- |
| C[C@@]1(C(F)(F)F)C[C@@H](NC(=O)NCc2ccc(NS(C)(=O)=O)c(F)c2)c2ccccc2O1 [Example 35, N-{2-fluoro-4-[({[(2S,4R)-2-methyl-2-(trifluoromethyl)-3,4-dihydro-2H-chromen-4-yl]carbamoyl}amino)methyl]phenyl}methanesulfonamide] | 25 | 2440 |  |
| CS(=O)(=O)Nc1ccc(CNC(=O)N[C@@H]2CCOc3ccc(F)cc32)cc1F [Example 30, N-{2-fluoro-4-[({[(4R)-6-fluoro-3,4-dihydro-2H-chromen-4-yl]carbamoyl}amino)methyl]phenyl}methanesulfonamide] | 84 | > 37500 |  |
| CS(=O)(=O)Nc1ccc(CNC(=O)N[C@@H]2CCOc3cc(C(F)(F)F)ccc32)cc1F [Example 32, N-{2-fluoro-4-[({[(4R)-7-(trifluoromethyl)-3,4-dihydro-2H-chromen-4-yl]carbamoyl}amino)methyl]phenyl}methanesulfonamide] | 88 | 913 |  |
| CS(=O)(=O)Nc1ccc(CNC(=O)NC2CC3(CCCC3)Oc3ccccc32)cc1F (stereo not shown) [Example 44, N-(4-{[(3,4-dihydrospiro[chromene-2,1′-cyclopentan]-4-ylcarbamoyl)amino]methyl}-2-fluorophenyl)methanesulfonamide] | 42 | 1280 |  |
| CCC1(CC)C[C@@H](NC(=O)NCc2ccc(NS(C)(=O)=O)c(F)c2)c2cccc(F)c2O1 [Example 13, N-{4-[({[(4R)-2,2-diethyl-8-fluoro-3,4-dihydro-2H-chromen-4-yl]carbamoyl}amino)methyl]-2-fluorophenyl}methanesulfonamide] | 27 | 418 |  |
| CC(C)(C)c1ccc2c(c1)CC[C@H]2NC(=O)NCc1ccc(NS(C)(=O)=O)c(F)c1 [Example 1, N-{4-[({[(1R)-5-tert-butyl-2,3-dihydro-1H-inden-1-yl]carbamoyl}amino)methyl]-2-fluorophenyl}methanesulfonamide] | 22 | 104 |  |
| CCC1(CC)C[C@@H](NC(=O)NCc2ccc(NS(C)(=O)=O)c(F)c2)c2ccc(Cl)cc2O1 [Example 14, N-{4-[({[(4R)-7-chloro-2,2-diethyl-3,4-dihydro-2H-chromen-4-yl]carbamoyl}amino)methyl]-2-fluorophenyl}methanesulfonamide] | 27 | 209 |  |
| CC1(C)C[C@@H](NC(=O)NCc2ccc(NS(C)(=O)=O)c(F)c2)c2ccc(F)c(F)c2O1 [Example 29, N-{4-[({[(4R)-7,8-difluoro-2,2-dimethyl-3,4-dihydro-2H-chromen-4-yl]carbamoyl}amino)methyl]-2-fluorophenyl}methanesulfonamide] | 27 | 1150 |  |
| CC1(C)C[C@H](NC(=O)NCc2ccc(NS(C)(=O)=O)c(F)c2)c2cc(F)ccc2O1 [Example 34, N-{2-fluoro-4-[({[(45)-6-fluoro-2,2-dimethyl-3,4-dihydro-2H-chromen-4-yl]carbamoyl}amino)methyl]phenyl}methanesulfonamide] |  | 28700 | 86 |
| CCC1(CC)C[C@@H](NC(=O)NCc2ccc(NS(C)(=O)=O)c(F)c2)c2ccc(Cl)c(Cl)c2O1 [Example 8, N-{4-[({[(4R)-7,8-dichloro-2,2-diethyl-3,4-dihydro-2H-chromen-4-yl]carbamoyl}amino)methyl]-2-fluorophenyl}methanesulfonamide] | 24 | 330 |  |
| CS(=O)(=O)Nc1ccc(CNC(=O)N[C@H]2CCOc3cc(OC(F)(F)F)ccc32)cc1F [Example 24, N-{2-fluoro-4-[({[(45)-7-(trifluoromethoxy)-3,4-dihydro-2H-chromen-4-yl]carbamoyl}amino)methyl]phenyl}methanesulfonamide] |  | > 37500 | 77 |
